Assays:
[1] = test system: antibodies in sera from SARS patients (sera 1a, 1b, 2, 6, 37, 62, London, SARS-yellow, SARS-green); format: binding, human; parameters: Binding of serum 6 to linear peptides of protein X1 of SARS-CoV Urbani / Binding of serum 37 to linear peptides of protein X1 of SARS-CoV Urbani / Binding of serum 6 to looped/cyclic peptide (PEPSCAN-ELISA) / Binding of serum 37 to looped/cyclic peptide (PEPSCAN-ELISA) / Binding of serum 37 to looped/cyclic peptides of protein X1 of SARS-CoV Urbani / Binding of serum 6 to linear peptides of protein X2 / Binding of serum 37 to linear peptides of protein X2 / Binding of serum 37 to looped/cyclic peptides of protein X2 of SARS-CoV Urbani / Binding of serum 6 to linear peptides of protein M of SARS-CoV Urbani / Binding of serum 37 to linear peptides of protein M of SARS-CoV Urbani / Binding of serum 6 to looped/cyclic peptides of protein M of SARS-CoV Urbani / Binding of serum 37 to looped/cyclic peptides of protein M of SARS-CoV Urbani / Binding of serum 6 to linear peptides of protein X3 of SARS-CoV Urbani / Binding of serum 37 to linear peptides of protein X3 of SARS-CoV Urbani / Binding of serum 37 to looped/cyclic peptides of protein X3 of SARS-CoV Urbani / Binding of serum 6 to linear peptides of protein X4 of SARS-CoV Urbani / Binding of serum 37 to linear peptides of protein X4 of SARS-CoV Urbani / Binding of serum 37 to looped/cyclic peptides of protein X4 of SARS-CoV Urbani / Binding of serum 6 to linear peptides of protein X5 of SARS-CoV Urbani / Binding of serum 37 to linear peptides of protein X5 of SARS-CoV Urbani / Binding of serum 37 to looped/cyclic peptides of protein X5 of SARS-CoV Urbani / Binding of serum 6 to linear peptides of protein N of SARS-CoV Urbani / Binding of serum 37 to linear peptides of protein N of SARS-CoV Urbani / Binding of serum 6 to linear peptide (PEPSCAN-ELISA) / Binding of serum 1a to looped/cyclic peptides of protein N of SARS-CoV Urbani / Binding of serum 1b to looped/cyclic peptides of protein N of SARS-CoV Urbani / Binding of serum 2 to looped/cyclic peptides of protein N of SARS-CoV Urbani / Binding of serum 6 to looped/cyclic peptides of protein N of SARS-CoV Urbani / Binding of serum 37 to looped/cyclic peptides of protein N of SARS-CoV Urbani / Binding of serum 62 to looped/cyclic peptides of protein N of SARS-CoV Urbani / Binding of serum London to looped/cyclic peptides of protein N of SARS-CoV Urbani / Binding of serum SARS-green to looped/cyclic peptides of protein N of SARS-CoV Urbani: unit not given here
[2] = test system: control sera (pooled serum of ten healthy LUMC hospital workers; commercial negative donor pooled serum from the Dutch bloodbank); format: binding, human; parameters: Binding of Control serum LUMC to linear peptides / Binding of Control serum Blood-bank to linear peptides / Binding of Control serum LUMC to looped peptides / Binding of Control Serum Blood-Bank to Looped peptides / Binding of Control serum LUMC to linear peptides of the protein M of SARS-CoV Urbani / Binding of Control serum Blood-bank to linear peptides of the protein M of SARS-CoV Urbani / Binding of Control serum LUMC to looped peptides of the protein M of SARS-CoV Urbani / Binding of Control Serum Blood-Bank to Looped peptides of the protein M of SARS-CoV Urbani: unit not given here
[3] = test system: rabbit serum obtained by immunizing a rabbit with the SARS-CoV strain Frankfurt 1; format: binding; parameters: Binding of a rabbit serum to linear peptides / Binding of a rabbit serum to looped peptides / Rabbit serum linear peptides / Rabbit serum looped peptides / Binding of a rabbit serum to linear peptides of protein N of SARS-CoV Urbani (Rabbit serum linear peptides) / Binding of a rabbit serum to looped/cyclic peptides of protein N of SARS-CoV Urbani (Rabbit serum looped peptides): unit not given here

HTIDGSSGVANPAMD
0.7: Binding of serum 1a to linear peptides of protein X1 of SARS-CoV Urbani [1] | Binding of serum 1b to linear peptides of protein X1 of SARS-CoV Urbani [1] | Binding of serum 37 to linear peptides of protein X1 of SARS-CoV Urbani [1] | Binding of serum 62 to linear peptides of protein X1 of SARS-CoV Urbani [1]
0.1: Binding of serum 2 to looped/cyclic peptides of protein X1 of SARS-CoV Urbani [1] | Binding of serum 6 to looped/cyclic peptides of protein X1 of SARS-CoV Urbani [1] | Binding of serum London to looped/cyclic peptides of protein X1 of SARS-CoV Urbani [1] | Binding of serum SARS-green to looped/cyclic peptides of protein X1 of SARS-CoV Urbani [1] | Binding of serum SARS-yellow to looped/cyclic peptides of protein X1 of SARS-CoV Urbani [1] | Binding of a rabbit serum to linear peptides [3]
0.2: Binding of serum 1b to looped/cyclic peptides of protein X1 of SARS-CoV Urbani [1] | Binding of serum 62 to looped/cyclic peptides of protein X1 of SARS-CoV Urbani [1] | Binding of Control serum LUMC to looped peptides [2]
0.4: Binding of serum SARS-yellow to linear peptides of protein X1 of SARS-CoV Urbani [1] | Binding of Control serum Blood-bank to linear peptides [2] | Binding of a rabbit serum to looped peptides [3]
0.6: Binding of serum SARS-green to linear peptides of protein X1 of SARS-CoV Urbani [1]
0.3: Binding of serum 1a to looped/cyclic peptides of protein X1 of SARS-CoV Urbani [1] | Binding of serum 37 to looped/cyclic peptides of protein X1 of SARS-CoV Urbani [1] | Binding of serum London to linear peptides of protein X1 of SARS-CoV Urbani [1] | Binding of Control Serum Blood-Bank to Looped peptides [2]
0.5: Binding of serum 2 to linear peptides of protein X1 of SARS-CoV Urbani [1] | Binding of serum 6 to linear peptides of protein X1 of SARS-CoV Urbani [1] | Binding of Control serum LUMC to linear peptides [2]

AVYRINWVTGGIAIA
0.2: Binding of serum 6 to linear peptides of protein M of SARS-CoV Urbani [1] | Binding of serum London to looped/cyclic peptides of protein M of SARS-CoV Urbani [1]
0.1: Binding of serum SARS-yellow to linear peptides of protein M of SARS-CoV Urbani [1]
0.8: Binding of serum 1a to looped/cyclic peptides of protein M of SARS-CoV Urbani [1] | Binding of serum 37 to linear peptides of protein M of SARS-CoV Urbani [1] | Binding of serum 62 to linear peptides of protein M of SARS-CoV Urbani [1] | Binding of Control Serum Blood-Bank to Looped peptides of the protein M of SARS-CoV Urbani [2] | Binding of Control serum LUMC to looped peptides of the protein M of SARS-CoV Urbani [2]
0.4: Binding of serum 1b to looped/cyclic peptides of protein M of SARS-CoV Urbani [1] | Binding of serum SARS-green to looped/cyclic peptides of protein M of SARS-CoV Urbani [1] | Rabbit serum linear peptides [3]
0.6: Binding of serum 1b to linear peptides of protein M of SARS-CoV Urbani [1] | Binding of serum 2 to linear peptides of protein M of SARS-CoV Urbani [1] | Binding of serum 2 to looped/cyclic peptides of protein M of SARS-CoV Urbani [1] | Binding of serum 6 to looped/cyclic peptides of protein M of SARS-CoV Urbani [1]
0.5: Binding of Control serum LUMC to linear peptides of the protein M of SARS-CoV Urbani [2] | Rabbit serum looped peptides [3]
0.3: Binding of serum London to linear peptides of protein M of SARS-CoV Urbani [1] | Binding of serum SARS-green to linear peptides of protein M of SARS-CoV Urbani [1]
0.7: Binding of serum 1a to linear peptides of protein M of SARS-CoV Urbani [1] | Binding of serum 37 to looped/cyclic peptides of protein M of SARS-CoV Urbani [1] | Binding of serum 62 to looped/cyclic peptides of protein M of SARS-CoV Urbani [1] | Binding of serum SARS-yellow to looped/cyclic peptides of protein M of SARS-CoV Urbani [1] | Binding of Control serum Blood-bank to linear peptides of the protein M of SARS-CoV Urbani [2]

KLLQTLVLKMLHSSS
0.4: Binding of serum 2 to linear peptides of protein X2 [1] | Binding of serum 37 to looped/cyclic peptides of protein X2 of SARS-CoV Urbani [1] | Binding of serum London to linear peptides of protein X2 [1] | Binding of serum London to looped/cyclic peptides of protein X2 of SARS-CoV Urbani [1] | Binding of serum SARS-yellow to linear peptides of protein X2 [1] | Binding of serum SARS-yellow to looped/cyclic peptides of protein X2 of SARS-CoV Urbani [1] | Binding of a rabbit serum to looped peptides [3]
0.3: Binding of serum 2 to looped/cyclic peptides of protein X2 of SARS-CoV Urbani [1] | Binding of serum 6 to linear peptides of protein X2 [1] | Binding of serum SARS-green to looped/cyclic peptides of protein X2 of SARS-CoV Urbani [1] | Binding of Control serum LUMC to linear peptides [2]
0.6: Binding of serum 1a to linear peptides of protein X2 [1] | Binding of serum 1b to linear peptides of protein X2 [1] | Binding of serum 62 to linear peptides of protein X2 [1] | Binding of serum 62 to looped/cyclic peptides of protein X2 of SARS-CoV Urbani [1] | Binding of Control serum LUMC to looped peptides [2]
0.7: Binding of Control Serum Blood-Bank to Looped peptides [2] | Binding of Control serum Blood-bank to linear peptides [2]
0.5: Binding of serum 1a to looped/cyclic peptides of protein X2 of SARS-CoV Urbani [1] | Binding of serum 1b to looped/cyclic peptides of protein X2 of SARS-CoV Urbani [1] | Binding of serum 6 to looped/cyclic peptides of protein X2 of SARS-CoV Urbani [1] | Binding of serum 37 to linear peptides of protein X2 [1] | Binding of serum SARS-green to linear peptides of protein X2 [1]
0.2: Binding of a rabbit serum to linear peptides [3]

— patent US20070128217A1 (priority 2003, published 2007)
